Like-named read-outs stand apart in the source and are kept apart here.
Experiments:
[1] = Sheep; cited from earlier work
[2] = tested on: tyrosine hydroxylase positive cells (TH+ cells) in the substantia nigra; experiment: 6-OHDA lesion rat model, TH+ cells in the substantia nigra; assay type: in vivo, Sprague-Dawley rats
Experimental: Male Sprague-Dawley rats with starting weights 225±25 g, were housed in groups of 3 with free access to food and water, under controlled temperature (21° C.±1° C.) and a 12 hour light/dark cycle (light on 07.00 hrs). All scientific procedures were carried out with the approval of the Home Office, U.K. Rats were administered, by gavage, 70 mg/kg of ergothioneine or vehicle (sterile distilled water) daily for 4 days (n=6 per group). On the 4th day, 1 hr after L-ergothioneine or vehicle administration, rats were anaesthetized with small animal Immobilon® (0.04 ml/rat, i.m.), and 6-OHDA (5 μg dissolved in 4 μl of 0.1% ascorbic acid/saline solution) was injected onto median forebrain bundle (stereotactic co-ordinates: 2.2 mm anterior, +1.5 lateral from bregma and −7.9 ventral to dura with ear bars 5 mm below incisor bars (Datla et al. (2001) Neuroreport 12:3871, which reference is herein specifically incorporated by reference in its entirety). One week after 6-OHDA lesioning, rats were killed by cervical dislocation and the brains were dissected out immediately. A coronal section was made at the level of hypothalamus and fore brain, and hind brain parts were separated. Hind-brain was fixed for 7 days in 4% paraformaldehyde, then cryo-protected with 30% sucrose solution for 2-3 days and used for tyrosine hydroxylase (TH) immuno-staining as described by Datla et al. (2001) supra. Briefly, TH was immuno-stained by incubating the 20 μm fixed coronal free-floating sections with polyclonal rabbit anti-TH (1:3000, Chemicon, U.K.) followed by biotinylated anti-rabbit IgG and avidin/biotin complex (Vector Lab, U.K.). The TH immuno-complex was then visualized by diaminobenzidine (DAB) and H2O2. Images of TH positive cells (TH+ cells) were captured by a Xillix CCD digital camera and counted automatically (Image Proplus, Datacell, U.K.). The number of TH+ cells in the substantia nigra on the control side was compared with the lesioned side by averaging the cells in 5 different levels (Datla et al. (2001) supra). […]

[3] = Ox; cited from earlier work
p65 = experiment: Immunocytochemistry, nuclear translocation of p65; assay type: cell-based, Rat; conditions: Aβ25-35 for 1 h
PC12 cells [4] = experiment: TUNEL, Aβ25-35-induced apoptosis; assay type: cell-based, Rat; conditions: 25 μM Aβ25-35, 36 h; EGT at 0.5 mM or 1 mM
Experimental: The commercially available in situ death detection kit (Boehringer Mannheim product, Manheim, Germany) was utilized to detect DNA fragmentation. The PC12 cells (5×10^5 cells/1.5 ml in chamber slide) were fixed for 30 min in 10% neutral buffered-formalin solution at room temperature. Endogenous peroxidase was inactivated by incubation with 0.3% (v/v) hydrogen peroxide in methanol for 30 min at room temperature and further incubated in a permeabilizing solution (0.1% sodium citrate and 0.1% Triton X-100) for 2 min at 4° C. The cells were labeled by incubation with the TUNEL reaction mixture for 60 min at 37° C. followed by labeling with peroxidase-conjugated anti-fluorescein anti-goat antibody (Fab fragment) for additional 30 min. After staining with diaminobenzidine for 10 min, cells were rinsed with phosphate-buffered saline (PBS) and mounted with 50% glycerol.

PC12 cells [5] = experiment: Lipid peroxidation (MDA, BIOXYTECH LPO-586); assay type: cell-based, Rat; conditions: Aβ25-35-treated PC12 cells; pretreatment for 30 min
Experimental: The extent of lipid peroxidation in PC12 cells treated with Aβ25-35 was assessed using the commercially available calorimetric assay kit BIOXYTECH LPO-586 (OXIS Research, Portland, Oreg.). After exposure to 50 μM Aβ25-35 in the presence or absence of L-ergothioneine at 37° C. for 24 h, PC12 cells were harvested and homogenized in 20 mM Tris-HCl buffer (pH 7.4), containing 0.5 mM butylated hydroxytoluene to prevent sample oxidation. After centrifugation, 3.25 volumes of diluted R1 reagent (10.3 mM N-methyl-2-phenylindole in acetonitrile) was added to the supernatant, followed by gentle vortex mixing following the addition of 0.75 ml of 37% (v/v) HCl, the mixtures were incubated at 45° C. for 60 min. After cooling and centrifugation, the absorbance of the clear supernatant was read at 590 nm. The protein concentration was determined using the BCA protein assay kit.

[6] = Fowl; cited from earlier work
PC12 cells [7] = experiment: LDH release assay, Aβ25-35-treated PC12 cells; assay type: cell-based, Rat; conditions: 25 μM Aβ25-35-treated PC12 cells
Experimental: PC12 cells were maintained in DMEM supplemented with 10% heat-inactivated horse serum and 5% fetal bovine serum at 37° C. in a humidified atmosphere of 10% CO2/90% air. All cells were cultured in poly-D-lysine coated culture dishes. The medium was changed every other day, and cells were plated at an appropriate density according to each experimental scale. After 24 h subculture, cells were switched to serum-free N-2 defined medium for treatment. For determination of cell viability, PC12 cells were initially plated at a density of 4×10^4 cells/300 μl in 48-well plates, and the cell viability was determined by the conventional MTT reduction and the lactate dehydrogenase (LDH) release assay as described below.
This assay measures the leakage of the soluble cytoplasmic LDH enzyme into the extracellular medium due to cell lysis. PC12 cells were plated at the same density as for the MTT assay described above. The amount of lactate was measured by monitoring the oxidation of L-lactic acid by NAD^+ in the presence of LDH to pyruvate. The culture media were transferred to 96-well plate and incubated with 1 mg/ml β-NAD^+ in pyruvate substrate solution at 37° C. for 30 min. […] The changes in absorbance were determined at 450 nm using a spectrophotometric microplate reader.

PC12 cells [8] = experiment: Cell death induced by the NO releasing compound SNP (MTT); assay type: cell-based, Rat; conditions: MTT reduction assay
Experimental: The MTT assay is a sensitive measurement of the normal metabolic status of cells, particularly that of mitochondria, which reflects early cellular redox changes. After incubation, cells were treated with the MTT solution (final concentration, 1 mg/ml) for 2 h. The dark blue formazan crystals formed in intact cells were dissolved in DMSO, and absorbance at 570 nm was measured with a microplate reader. Results were expressed as the percentage (%) of MTT reduction, assuming that the absorbance of control cells was 100%.

[9] = Rabbit; cited from earlier work

In the case of `C[N+](C)(C)[C@@H](Cc1c[nH]c(=S)[nH]1)C(=O)[O-]` [L-ergothioneine, 2-mercaptohistidine trimethylbetaine], the “L-Ergothioneine Concentration (mg/100 ml blood)” value (from here on “L-Ergothioneine Concentration”) [1] is listed as 2-6 mg/100 ml blood, the “improvement in terms of neuroprotection over the controls” value ([2]; L-ergothioneine vs vehicle treated group) is listed as “approximately 20%” and the “number of TH+ cells on the control side of the brain” value ([2]; control (unlesioned) side, vs vehicle group) is listed as “comparable”. For the same molecule, the “reduction in the number of TH+ cells” value ([2]; lesioned vs control side, 70 mg/kg by gavage, one week after 6-OHDA lesioning) was 46%, the “L-Ergothioneine Concentration” value [3] was 0.5-2 mg/100 ml blood and the “Aβ25-35-induced nuclear translocation of p65” value (p65) was “inhibitory effect”. For the same molecule, the “proportion of TUNEL-positive cells” value (PC12 cells [4]) was “lowered the proportion of TUNEL-positive cells”, the lipid peroxidation (PC12 cells [5]) was “concentration dependent inhibition” and the “L-Ergothioneine Concentration” value [6] was 2-10 mg/100 ml blood. For the same molecule, the LDH release (PC12 cells [7]) was “reduce the LDH release”, the “cell death mediated by the NO donor SNP” value (PC12 cells [8]) was “failed to attenuate” and the “L-Ergothioneine Concentration” value [9] was 1-10 mg/100 ml blood.

Source: US20080107603A1, “Neuroprotectant methods, compositions, and screening methods thereof” (priority 2002, published 2008)
